According to patent US20230212144A1, “5-MEMBERED HETEROARYL DERIVATIVE CONTAINING AT LEAST ONE N, AND PHARMACEUTICAL COMPOSITION FOR PREVENTING OR TREATING MENTAL DISORDERS, CONTAINING SAME AS ACTIVE INGREDIENT” (DAEGU-GYEONGBUK MEDICAL INNOVATION FOUNDATION, priority 2020, published 2023):

Tests used:
[1] = target: serotonin transporter (SERT) (Homo sapiens, UniProt P31645); assay: Serotonin reuptake inhibition, [3H]-5-HT, cells transfected with 5-HT transporter cDNA; conditions: for Triple reuptake inhibition (Ratio %) SERT: compound 1 μM, relative to control without compound (100%), lower value = stronger inhibition
Experimental: (§1) After removing the medium, each compound of Examples or Comparative Examples diluted to 1 μM in uptake buffer was added to a concentration of 200 μL/well and cultured at 37° C. for 15 minutes. 100 μL of uptake buffer containing 20-30 nM [3H]-DA was added and cultured at 37° C. for 5 minutes. The reaction solution was quickly removed and washed three times with 1 mL ice-cold uptake buffer. After dissolving the resultant in 1% SDS (0.5 mL), the degree of binding of radioisotope-labeled dopamine to the transporter was measured.
(§2) For norepinephrine(NE) and serotonin(5-HT), the degree of binding of radioisotope-labeled norepinephrine or serotonin to the transporter was measured in the same manner as above, except that cells transfected with NE or 5-HT transporter cDNA were used and [3H]-NE or [3H]-5-HT was used as a substrate.
(§3) In addition, when evaluating the reuptake inhibitory effect on dopamine, norepinephrine, and serotonin, the same method was performed without treating each compound of Examples or Comparative Examples as a control, the degree of binding of radioisotope-labeled dopamine, norepinephrine, and serotonin to the transporter was measured, and by using this as a reference (100%), the triple reuptake inhibitory effect was evaluated as a relative ratio (Ratio %). That is, in the control group, the binding of dopamine, norepinephrine, and serotonin to transporters is not inhibited, but when each compound of Examples is treated and thus the binding is inhibited, the Ratio % value decreases.

[2] = target: dopamine transporter (DAT) (Homo sapiens, UniProt Q01959); assay: Dopamine reuptake inhibition, [3H]-DA, HEK-293 cells transfected with dopamine transporter cDNA; conditions: for Triple reuptake inhibition (Ratio %) DAT: compound 1 μM, relative to control without compound (100%), lower value = stronger inhibition
Experimental: as §1, §3

[3] = target: norepinephrine transporter (NET) (Homo sapiens, UniProt P23975); assay: Norepinephrine reuptake inhibition, [3H]-NE, cells transfected with NE transporter cDNA; conditions: for Triple reuptake inhibition (Ratio %) NET: compound 1 μM, relative to control without compound (100%), lower value = stronger inhibition
norepinephrine transporter (NET), sequence (P23975 whole entry, species assumed): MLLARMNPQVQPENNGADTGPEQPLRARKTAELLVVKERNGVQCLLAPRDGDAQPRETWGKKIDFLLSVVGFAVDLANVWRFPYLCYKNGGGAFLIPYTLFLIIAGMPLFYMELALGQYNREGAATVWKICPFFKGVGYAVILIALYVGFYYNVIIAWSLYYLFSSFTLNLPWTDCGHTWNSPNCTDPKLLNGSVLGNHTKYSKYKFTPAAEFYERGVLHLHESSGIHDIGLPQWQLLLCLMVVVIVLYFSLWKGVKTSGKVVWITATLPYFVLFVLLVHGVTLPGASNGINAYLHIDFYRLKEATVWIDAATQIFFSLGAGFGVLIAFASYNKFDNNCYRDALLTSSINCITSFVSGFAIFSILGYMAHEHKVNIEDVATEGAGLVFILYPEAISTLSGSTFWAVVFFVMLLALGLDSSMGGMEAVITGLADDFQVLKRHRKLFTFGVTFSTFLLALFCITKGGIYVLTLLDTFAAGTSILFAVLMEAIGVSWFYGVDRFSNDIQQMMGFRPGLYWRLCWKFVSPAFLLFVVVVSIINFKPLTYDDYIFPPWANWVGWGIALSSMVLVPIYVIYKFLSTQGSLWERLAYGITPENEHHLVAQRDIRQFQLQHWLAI
Experimental: as §1, §2, §3

dopamine transporter (DAT), sequence (Q01959 whole entry, species assumed): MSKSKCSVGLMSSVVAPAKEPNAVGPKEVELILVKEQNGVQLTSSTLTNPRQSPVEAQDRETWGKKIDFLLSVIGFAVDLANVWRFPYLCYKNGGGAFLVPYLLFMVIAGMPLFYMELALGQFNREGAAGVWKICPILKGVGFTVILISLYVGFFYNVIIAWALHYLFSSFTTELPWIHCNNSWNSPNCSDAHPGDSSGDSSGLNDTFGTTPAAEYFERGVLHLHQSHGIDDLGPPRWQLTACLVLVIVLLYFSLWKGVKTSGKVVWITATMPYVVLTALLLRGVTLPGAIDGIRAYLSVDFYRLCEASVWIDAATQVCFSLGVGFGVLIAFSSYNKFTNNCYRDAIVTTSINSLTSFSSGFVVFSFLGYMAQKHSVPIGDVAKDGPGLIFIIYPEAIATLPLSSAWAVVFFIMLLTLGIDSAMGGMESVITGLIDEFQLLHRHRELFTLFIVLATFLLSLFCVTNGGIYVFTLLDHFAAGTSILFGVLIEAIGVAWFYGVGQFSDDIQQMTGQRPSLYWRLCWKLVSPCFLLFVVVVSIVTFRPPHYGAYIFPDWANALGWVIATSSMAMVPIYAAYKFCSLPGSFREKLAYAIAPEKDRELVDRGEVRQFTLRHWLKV
serotonin transporter (SERT), sequence (P31645 whole entry, species assumed): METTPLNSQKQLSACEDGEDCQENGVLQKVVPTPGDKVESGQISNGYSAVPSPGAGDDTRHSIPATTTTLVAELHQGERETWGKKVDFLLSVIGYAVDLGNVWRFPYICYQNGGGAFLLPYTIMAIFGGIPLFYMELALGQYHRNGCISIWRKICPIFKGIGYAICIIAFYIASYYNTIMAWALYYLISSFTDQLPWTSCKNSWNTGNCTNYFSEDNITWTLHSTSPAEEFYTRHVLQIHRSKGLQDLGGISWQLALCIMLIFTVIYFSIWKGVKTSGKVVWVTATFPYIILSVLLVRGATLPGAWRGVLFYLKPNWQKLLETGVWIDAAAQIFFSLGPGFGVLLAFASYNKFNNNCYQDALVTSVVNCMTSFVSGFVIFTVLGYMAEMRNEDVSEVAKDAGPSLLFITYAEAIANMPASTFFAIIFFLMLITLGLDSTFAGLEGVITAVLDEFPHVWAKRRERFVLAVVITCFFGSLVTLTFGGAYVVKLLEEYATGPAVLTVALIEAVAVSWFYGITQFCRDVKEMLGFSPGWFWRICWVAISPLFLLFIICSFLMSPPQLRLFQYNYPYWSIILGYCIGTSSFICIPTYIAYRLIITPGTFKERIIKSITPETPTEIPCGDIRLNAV

IC50 [1] | Triple reuptake inhibition (Ratio %) SERT [1] | Triple reuptake inhibition (Ratio %) DAT [2] | Triple reuptake inhibition (Ratio %) NET [3] | IC50 [2] | IC50 [3] | Compound
1870 nM | 61.70% | 94.44% | 95.63% | – | – | COC(=O)c1cccc2c(-c3nnc(CN4CCC(Cc5ccc(Cl)c(Cl)c5)CC4)[nH]3)c[nH]c12 [Example 60, methyl 3-(5-((4-(3,4-dichlorobenzyl)piperidin-1-yl)methyl)-4H-1,2,4-triazol-3-yl)-1H-indol-7-carboxylate]
– | 82.77% | 59.39% | 48.25% | – | – | FC(F)(F)Oc1ccc(-c2nnc(CN3CCC(Cc4ccc(Cl)c(Cl)c4)CC3)[nH]2)cc1 [Example 61, 4-(3,4-dichlorobenzyl)-1-((5-(4-(trifluoromethoxy)phenyl)-4H-1,2,4-triazol-3-yl)methyl)piperidine]
– | 79.73% | 52.96% | 36.41% | – | – | FC(F)(F)c1ccc(-c2nnc(CN3CCC(Cc4ccc(Cl)c(Cl)c4)CC3)[nH]2)cc1 [Example 62, 4-(3,4-dichlorobenzyl)-1-((5-(4-(trifluoromethyl)phenyl)-4H-1,2,4-triazol-3-yl)methyl)piperidine]
1840 nM | 61.10% | 26.54% | 27.25% | 221 nM | 327 nM | COC(=O)c1ccc(-c2nnc(CN3CCC(Cc4ccccc4)CC3)[nH]2)cc1N [Example 63, methyl 2-amino-4-(5-((4-benzylpiperidin-1-yl)methyl)-4H-1,2,4-triazol-3-yl)benzoate]
– | 92.53% | 28.61% | 67.11% | – | – | Clc1ccc2[nH]c(-c3nnc(CN4CCN(Cc5ccccc5)CC4)[nH]3)cc2c1 [Example 65, 2-(5-((4-benzylpiperazin-1-yl)methyl)-4H-1,2,4-triazol-3-yl)-5-chloro-1H-indole]

Compound | IC50 [1] | Triple reuptake inhibition (Ratio %) SERT [1] | Triple reuptake inhibition (Ratio %) DAT [2] | Triple reuptake inhibition (Ratio %) NET [3] | IC50 [2] | IC50 [3]
Fc1ccc2[nH]c(-c3nnc(CN4CCN(Cc5ccccc5)CC4)[nH]3)cc2c1 [Example 64, 2-(5-((4-benzylpiperazin-1-yl)methyl)-4H-1,2,4-triazol-3-yl)-5-fluoro-1H-indole] | – | 91.98% | 32.65% | 64.96% | – | –
